# Data as given in PMC7898822, “RNA‐PROTACs: Degraders of RNA‐Binding Proteins” (Angewandte Chemie (International Ed. in English), 2020).
# Read-outs that look alike come from different tables or passages of the source.
# How the values were obtained:
# Lin28_ZKD [1] = biological target: T1, Lin28_ZKD (Homo sapiens, UniProt Q9H9Z2); assay: Fluorescence polarization competition assay (displacement of let7FAM from Lin28_ZKD); format: binding
# T1 construct: construct encoding amino acids 124–186 of human Lin28; His6; made in house; host or cells: Escherichia coli BL21 (DE3) Codon+ (RIL)
# T1 sequence (Q9H9Z2 124-186): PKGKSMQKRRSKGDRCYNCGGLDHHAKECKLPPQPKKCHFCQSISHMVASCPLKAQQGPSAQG
# Method: Fluorescence Polarization Assay. Fluorescence polarization titration assay was carried out by titrating Lin28_ZKD protein into FAM-labeled PreE-let-7 at a 10 nM final concentration and buffer (10 mM HEPES, 150 mM NaCl, 10 µM ZiCl2, pH 7,4). The assay plate was briefly vortexed, and air bubbles were removed by spinning at 1000 rpm. The fluorescence anisotropy was measured on a Spectra Max Paradigm multimode plate reader (Molecular Devices). The fluorescence polarization competition […]
# preE-let-7. The concentration of Lin28_ ZKD is kept at 40 nM, a value in the range of the dissociation constant of Lin28_ZKD and preE-let-7 determined through fluorescence polarization titration assay, whereas preE-let-7 concentration is kept constant at 10 nM. FP competitive binding assays were performed on 384-well plates (#3575, Corning) with a total well volume of 10 µL.
# Fluorescence polarization readings were transferred into Prism 7.0 (GraphPad). All fluorescence polarization assays were repeated at least three times and the anisotropy values fitted using GraphPad Prism software using 1:1 binding/inhibition model. […]
# Lin28A = assay: Western blot of Lin28A in K562 cells; format: cell-based, human; conditions: K562 cells, 48 h, western blot; three independent experiments
# Source text: Finally, we tested RNA‐PROTACs for their ability to degrade their target in two cell lines: the embryonic NT2/D1 cell line, which expresses high levels of Lin28A, ^[13a] and K562 cells which express Lin28A and Lin28B. […] Finally, we co‐treated K562 cells with ORN3P1 and MG132, a reversible inhibitor of the 26S proteasome. […] In order to explore the versatility of RNA‐PROTACs with non peptide‐based VHL ligands, we conjugated small‐molecule VH032 ^[38] to ORN3 via an amino linker to yield ORN3VH032 (Figure S1). […]
# Lin28_ZKD [2] = biological target: T1, Lin28_ZKD; assay: NMR 1H-15N HSQC titration of Lin28_ZKD; format: binding; conditions: 10 mM HEPES pH 7.0, 303K
# Source text: The oligonucleotide element of an RNA‐PROTAC binds its target RBP via interactions at the riboses and the backbone, as well as the nucleobases. […] Thus, we used the same method to examine how various ribose modifications of L28RBE (Table 1, Figure S1) might affect binding of an RNA‐PROTAC to Lin28_ZKD.
# K562 cells = assay: Intracellular uptake of FAM-labelled oligonucleotides, fluorescence microscopy; format: cell-based, human; conditions: FAM-conjugated, 1 µM, 24 h
molecule,measurement,setting,value
CC[C@H](C)[C@H](NC(=O)[C@H](Cc1ccc(O)cc1)NC(=O)[C@@H]1C[C@@H](O)CN1C(=O)[C@H](C)NC(=O)[C@H](CC(C)C)NC(=O)CCCCCNC(=O)[C@@H](N)CSC1CC(=O)N(CCOP(=O)(S)OC[C@H]2O[C@@H](n3cnc4c(N)ncnc43)[C@H](OC)[C@@H]2OP(=O)(S)OC[C@H]2O[C@@H](n3cnc4c(=O)[nH]c(N)nc43)[C@H](OC)[C@@H]2OP(=O)(S)OC[C@H]2O[C@@H](n3cnc4c(=O)[nH]c(N)nc43)[C@H](OC)[C@@H]2OP(=O)(S)OC[C@H]2O[C@@H](n3cnc4c(N)ncnc43)[C@H](OC)[C@@H]2OP(=O)(S)OC[C@H]2O[C@@H](n3cnc4c(=O)[nH]c(N)nc43)[C@H](OC)[C@@H]2OP(=O)(S)OC[C@H]2O[C@@H](n3cnc4c(N)ncnc43)[C@H](OC)[C@@H]2OP(=O)(S)OC[C@H]2O[C@@H](n3ccc(=O)[nH]c3=O)[C@H](OC)[C@@H]2O)C1=O)C(=O)O (stereo partly drawn) [ORN4P1],IC50,Lin28_ZKD [1],208 ± 27.4 nM
CCCC[C@H](NC(=O)[C@H](C)NC(=O)[C@H](CC(C)C)NC(=O)CCCCCNC(=O)[C@@H](N)CSC1CC(=O)N(CCOP(=O)(S)OC[C@H]2O[C@@H](n3cnc4c(N)ncnc43)[C@H](OC)[C@@H]2OP(=O)(S)OC[C@H]2O[C@@H](n3cnc4c(=O)[nH]c(N)nc43)[C@H](OC)[C@@H]2OP(=O)(S)OC[C@H]2O[C@@H](n3cnc4c(=O)[nH]c(N)nc43)[C@H](OC)[C@@H]2OP(=O)(S)OC[C@H]2O[C@@H](n3cnc4c(N)ncnc43)[C@H](OC)[C@@H]2OP(=O)(S)OC[C@H]2O[C@@H](n3cnc4c(=O)[nH]c(N)nc43)[C@H](OC)[C@@H]2OP(=O)(S)OC[C@H]2O[C@@H](n3cnc4c(N)ncnc43)[C@H](OC)[C@@H]2OP(=O)(S)OC[C@H]2O[C@@H](n3ccc(=O)[nH]c3=O)[C@H](OC)[C@@H]2O)C1=O)C(=O)N[C@@H](Cc1ccc(O)cc1)C(=O)N[C@H](C(=O)O)[C@@H](C)CC (stereo partly drawn) [ORN4Pcon],IC50,Lin28_ZKD [1],206 ± 2.1 nM
CC[C@H](C)[C@H](NC(=O)[C@H](Cc1ccc(O)cc1)NC(=O)[C@@H]1C[C@@H](O)CN1C(=O)[C@H](C)NC(=O)[C@H](CC(C)C)NC(=O)CCCCCNC(=O)[C@@H](N)CSC1CC(=O)N(CCOP(=O)(S)OC[C@H]2O[C@@H](n3cc(C)c(=O)[nH]c3=O)[C@H](OCCOC)[C@@H]2OP(=O)(S)OC[C@H]2O[C@@H](n3cc(C)c(=O)[nH]c3=O)[C@H](OCCOC)[C@@H]2OP(=O)(S)OC[C@H]2O[C@@H](n3cc(C)c(=O)[nH]c3=O)[C@H](OCCOC)[C@@H]2OP(=O)(S)OC[C@H]2O[C@@H](n3cnc4c(N)ncnc43)[C@H](OCCOC)[C@@H]2OP(=O)(S)OC[C@H]2O[C@@H](n3cc(C)c(=O)[nH]c3=O)[C@H](OCCOC)[C@@H]2OP(=O)(S)OC[C@H]2O[C@@H](n3cc(C)c(=O)[nH]c3=O)[C@H](OCCOC)[C@@H]2OP(=O)(S)OC[C@H]2O[C@@H](n3cnc4c(=O)[nH]c(N)nc43)[C@H](OCCOC)[C@@H]2O)C1=O)C(=O)O (stereo partly drawn) [ORN5P1],Lin28A suppression (in words),Lin28A,inactive
same,activity in FP competition assay (in words),Lin28_ZKD [1]; displacement of let7FAM from Lin28_ZKD,weak effect on Lin28_ZKD
"ORN7: AGGAGAUAACU, PS-MOE (all 2'-MOE, all phosphorothioate, methylation of C and T or U not given here; further chemistry not fully specified)",NMR chemical shift perturbation / signal change of Lin28_ZKD,"Lin28_ZKD [2]; 1H-15N HSQC, 1:1 ratio",some of the NMR signals broadened or disappeared
same,precipitation with Lin28_ZKD in NMR titration,Lin28_ZKD [2]; at higher concentrations,precipitation at higher concentrations was also observed
same,intracellular localization,K562 cells,visible in the cytosol and the nuclei of cells
same,relative uptake,K562 cells; compared with ORN3,higher than that of ORN3
same,IC50,"Lin28_ZKD [1]; Table 1, 40 nM Lin28_ZKD, 10 nM FAM-preE-let-7, 10 mM HEPES, 150 mM NaCl, pH 7.4, 30 min at 25 °C, 384-well, repeated at least three times, read-out: IC 50 determined by fluorescence polarization",162 ± 38 nM
